Measured values: US20260308149A1, “NOVEL CARBOXAMIDE DERIVATIVES” (ANGELINI PHARMA S.P.A., priority 2023, published 2026)

The compounds below were run against T1, human Kv7.2 (Homo sapiens, UniProt O43526) (assay: activation (potentiation) of Kv7.2 current, SyncroPatch 384 electrophysiology in CHO cells stably expressing human Kv7.2). Details: human Kv7.2 in CHO cells; in presence of 5.6 μM zinc pyrithione; % activation relative to 30 μM ML-213.
T1 construct: expressed in transfected cells
Format: cell-based
Outline: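 CHO cells stably expressing human Kv7.2 were recorded by automated patch clamp, holding at −60 mV with steps to −30, 40 and −90 mV; current was read at the −90 mV step. Compounds were added after 5.6 μM zinc pyrithione pre-activation. % activation was normalised between 30 μM ML-213 (max) and TEA+XE-991 (leak), with EC50 from a logistic fit.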

T1 sequence (O43526 whole entry): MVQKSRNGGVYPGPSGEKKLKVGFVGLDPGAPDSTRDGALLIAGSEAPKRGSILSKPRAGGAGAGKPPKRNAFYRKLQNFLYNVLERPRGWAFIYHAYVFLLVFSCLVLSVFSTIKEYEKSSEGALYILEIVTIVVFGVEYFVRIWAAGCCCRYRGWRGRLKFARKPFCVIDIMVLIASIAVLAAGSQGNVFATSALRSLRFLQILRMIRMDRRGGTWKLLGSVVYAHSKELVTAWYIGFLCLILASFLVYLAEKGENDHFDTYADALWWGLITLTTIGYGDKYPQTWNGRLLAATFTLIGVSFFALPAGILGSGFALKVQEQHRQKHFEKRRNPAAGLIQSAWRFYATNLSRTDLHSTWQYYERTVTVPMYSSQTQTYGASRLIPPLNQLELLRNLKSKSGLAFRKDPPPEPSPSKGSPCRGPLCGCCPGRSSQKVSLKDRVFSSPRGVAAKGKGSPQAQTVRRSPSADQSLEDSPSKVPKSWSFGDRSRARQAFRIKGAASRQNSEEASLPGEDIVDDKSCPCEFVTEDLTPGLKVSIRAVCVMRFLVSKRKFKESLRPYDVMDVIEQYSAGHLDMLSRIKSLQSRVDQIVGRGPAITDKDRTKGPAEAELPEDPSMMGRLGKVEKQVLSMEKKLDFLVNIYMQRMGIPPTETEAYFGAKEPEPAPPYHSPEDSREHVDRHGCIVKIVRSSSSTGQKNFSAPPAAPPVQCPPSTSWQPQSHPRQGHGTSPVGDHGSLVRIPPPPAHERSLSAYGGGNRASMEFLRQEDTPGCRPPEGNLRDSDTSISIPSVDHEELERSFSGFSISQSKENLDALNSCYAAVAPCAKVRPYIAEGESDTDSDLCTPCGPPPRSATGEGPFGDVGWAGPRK

| Compound | EC50 |
| --- | --- |
| CO[C@@](C)(CNC(=O)C1CC12CCCCC2)c1cccc(Cl)c1 (stereo partly drawn) [Example 82, N-[(2R)-2-(3-chlorophenyl)-2-methoxy-propyl]spiro[2.5]octane-2-carboxamide] | 290 nM |
| N#Cc1cccc([C@]2(CNC(=O)CC3CC4CCC3C4)CCO2)c1 (stereo partly drawn) [Example 108, N-[[(2S)-2-(3-cyanophenyl)oxetan-2-yl]methyl]-2-norbornan-2-yl-acetamide] | 410 nM |
| N#Cc1cccc([C@]2(CNC(=O)CC3CC4(CCC4)C3)CCO2)c1 [Example 116, N-[[(2S)-2-(3-cyanophenyl)oxetan-2-yl]methyl]-2-spiro[3.3]heptan-2-yl-acetamide] | 610 nM |
| COC(C)(CNC(=O)CCC1CCCC1)c1cccc(Cl)c1 (stereo not shown) [Example 53, N-[2-(3-chlorophenyl)-2-methoxy-propyl]-3-cyclopentyl-propanamide] | 890 nM |
| O=C(NCC1(c2cccc(OC(F)F)n2)CCO1)[C@H]1C[C@@H]1c1ccccc1 (stereo partly drawn) [Example 99, (1S,2S)—N-[[2-[6-(difluoromethoxy)-2-pyridyl]oxetan-2-yl]methyl]-2-phenyl-cyclopropanecarboxamide] | 230 nM |
| COC(C)(CNC(=O)C1CC1c1ccccc1F)c1cccc(Cl)c1 (stereo not shown) [Example 43, N-[2-(3-chlorophenyl)-2-methoxy-propyl]-2-(2-fluorophenyl)cyclopropanecarbox-amide] | 110 nM |
| N#Cc1cccc([C@]2(CNC(=O)C3CC3C3CCC(F)(F)CC3)CCO2)c1 (stereo partly drawn) [Example 136, N-[[(2S)-2-(3-cyanophenyl)oxetan-2-yl]methyl]-2-(4,4-difluorocyclohexyl)cyclopropanecarboxamide] | 400 nM |
| N#Cc1cccc([C@]2(CNC(=O)C3C(F)(F)C34CCC4)CCO2)c1 (stereo partly drawn) [Example 96, N-[[(2S)-2-(3-cyanophenyl)oxetan-2-yl]methyl]-2,2-difluoro-spiro[2.3]hexane-1-carboxamide] | 8540 nM |
| COC(CNC(=O)[C@H]1C[C@@H]1c1ccccc1)c1cccc(Cl)c1 (mixture of isomers) [Example 20, rac-(1R,2R)-N-[2-(3-chlorophenyl)-2-methoxy-ethyl]-2-phenyl-cyclopropanecarboxamide] | 970 nM |
| COC(C)(CNC(=O)NCc1cccc(C)c1)c1cccc(Cl)c1 (stereo not shown) [Example 11, 1-[2-(3-chlorophenyl)-2-methoxy-propyl]-3-(m-tolylmethyl)urea] | 1430 nM |
| O=C(NCC1(c2ccnc(OC(F)F)c2)CCO1)[C@H]1CC12CCCCC2 (stereo in doubt) [Example 122, N-[[2-[2-(difluoromethoxy)-4-pyridyl]oxetan-2-yl]methyl]spiro[2.5]octane-2-carboxamide] | 390 nM |
| COc1cccc(NC(=O)NCC(C)(OC)c2cccc(Cl)c2)c1 (stereo not shown) [Example 5, 1-[2-(3-chlorophenyl)-2-methoxy-propyl]-3-(3-methoxyphenyl)urea] | 1040 nM |
| CO[C@@](C)(CNC(=O)[C@H]1C[C@H]1C1CCCC1)c1cccc(Cl)c1 (mixture of isomers) [Example 81, (1SR,2SR)—N-[(2R)-2-(3-chlorophenyl)-2-methoxy-propyl]-2-cyclopentyl-cyclopropanecarboxamide] | 500 nM |
| COC(C)(CNC(=O)C1CC1c1ccc(Cl)cc1)c1cccc(Cl)c1 (stereo not shown) [Example 44, 2-(4-chlorophenyl)-N-[2-(3-chlorophenyl)-2-methoxy-propyl]cyclopropanecarboxamide] | 900 nM |
| N#Cc1cccc([C@@]2(CNC(=O)CC3CC4CCC3C4)CCO2)c1 (stereo partly drawn) [Example 97, N-[[(2R)-2-(3-cyanophenyl)oxetan-2-yl]methyl]-2-norboman-2-yl-acetamide] | 1280 nM |
| O=C(CC1CCC(F)(F)CC1)NCC1(c2cccc(Cl)c2)CCO1 (stereo not shown) [Example 65, N-[[2-(3-chlorophenyl)oxetan-2-yl]methyl]-2-(4,4-difluorocyclohexyl)acetamide] | 1920 nM |

Continued by falling EC50, values first:

| EC50 | Compound |
| --- | --- |
| 7510 nM | COC(C)(CNC(=O)/C=C/c1ccccc1F)c1cccc(Cl)c1 (stereo not shown) [Example 47, (E)-N-[2-(3-chlorophenyl)-2-methoxy-propyl]-3-(2-fluorophenyl)prop-2-enamide] |
| 6920 nM | O=C(NCC1CCCCO1)NCC1(c2cccc(Cl)c2)CC1 (stereo not shown) [Example 15, 1-[[1-(3-chlorophenyl)cyclopropyl]meth-yl]-3-(tetrahydropyran-2-ylmethyl)urea] |
| 6650 nM | N#Cc1cccc([C@@]2(CNC(=O)C3CC4CCC3CC4)CCO2)c1 (stereo partly drawn) [Example 98, N-[[(2R)-2-(3-cyanophenyl)oxetan-2-yl]methyl]bicyclo[2.2.2]octane-2-carboxamide] |
| 6010 nM | N#Cc1cccc([C@]2(CNC(=O)[C@H]3C[C@@H]3c3ccccn3)CCO2)c1 (mixture of isomers) [Example 124, (1SR,2SR)—N-[[(2S)-2-(3-cyanophenyl)oxetan-2-yl]methyl]-2-(2-pyridyl)cyclopropanecarboxamide] |
| 4580 nM | O=C(NCC(OC1CC1)c1cccc(Cl)c1)NC1CCCC1 (stereo not shown) [Example 18, 1-[2-(3-chlorophenyl)-2-(cyclopropoxy)ethyl]-3-cyclopentyl-urea] |
| 3650 nM | CCCCNC(=O)NCC(C)(OC)c1cccc(Cl)c1 (stereo not shown) [Example 8, 1-butyl-3-[2-(3-chlorophenyl)-2-methoxy-propyl]urea] |
| 3100 nM | O=C(NCC(CO)c1cccc(Cl)c1)[C@H]1C[C@@H]1c1ccccc1 (stereo partly drawn) [Example 74, (1S,2S)—N-[2-(3-chlorophenyl)-3-hydroxy-propyl]-2-phenyl-cyclopropanecarboxamide] |
| 2460 nM | COC(C)(CNC(=O)NCc1ccco1)c1cccc(Cl)c1 (stereo not shown) [Example 9, 1-[2-(3-chlorophenyl)-2-methoxy-propyl]-3-(2-furylmethyl)urea] |
| 1670 nM | COc1cccc(NC(=O)NC[C@](C)(OC)c2cccc(Cl)c2)c1 [Example 17, 1-[(2R)-2-(3-chlorophenyl)-2-methoxy-propyl]-3-(3-methoxyphenyl)urea] |
| 1580 nM | COC(CNC(=O)Cc1cccc2ccccc12)c1ccccc1Cl (stereo not shown) [Example 36, N-[2-(2-chlorophenyl)-2-methoxy-ethyl]-2-(1-naphthyl)acetamide] |
| 760 nM | COC(C)(CNC(=O)NCc1cccc(F)c1)c1cccc(Cl)c1 (stereo not shown) [Example 10, 1-[2-(3-chlorophenyl)-2-methoxy-propyl]-3-[(3-fluorophenyl)methyl]urea] |
| 710 nM | N#Cc1cccc([C@]2(CNC(=O)CC34CCC(CC3)C4)CCO2)c1 [Example 109, N-[[(2S)-2-(3-cyanophenyl)oxetan-2-yl]methyl]-2-norbornan-1-yl-acetamide] |
| 470 nM | N#Cc1cccc([C@]2(CNC(=O)[C@H]3C[C@@H]3c3ccc(Br)cc3)CCO2)c1 [Example 128, (1S,2S)-2-(4-bromophenyl)-N-[[(2S)-2-(3-cyanophenyl)oxetan-2-yl]methyl]cyclopropanecarboxamide] |
| 220 nM | CO[C@@](C)(CNC(=O)[C@@H]1C[C@H]1C1CCCC1)c1cccc(Cl)c1 (mixture of isomers) [Example 80, (1RS,2SR)—N-[(2R)-2-(3-chlorophenyl)-2-methoxy-propyl]-2-cyclopentyl-cyclopropanecarboxamide] |
| 130 nM | N#Cc1cccc([C@]2(CNC(=O)[C@H]3C[C@@H]3c3ccc(F)cc3)CCO2)c1 (mixture of isomers) [Example 107, (1SR,2SR)—N-[[(2S)-2-(3-cyanophenyl)oxetan-2-yl]methyl]-2-(4-fluorophenyl)cyclopropanecarboxamide] |
